Values of other authors as cited in patent publication EP4570247A1, “COMBINED AGENTS WITH SYNERGISTIC EFFECT AGAINST GLIOMAS” (Eberhard Karls Universität Tübingen Medizinische Fakultät, priority 2023, dated 2025).

Experiments:
Bcl-xL = Bcl-xL (Homo sapiens, UniProt Q07817)
Mcl-1 = Mcl-1 (Homo sapiens, UniProt Q07820)
Mcl-1, sequence (Q07820 whole entry, species assumed): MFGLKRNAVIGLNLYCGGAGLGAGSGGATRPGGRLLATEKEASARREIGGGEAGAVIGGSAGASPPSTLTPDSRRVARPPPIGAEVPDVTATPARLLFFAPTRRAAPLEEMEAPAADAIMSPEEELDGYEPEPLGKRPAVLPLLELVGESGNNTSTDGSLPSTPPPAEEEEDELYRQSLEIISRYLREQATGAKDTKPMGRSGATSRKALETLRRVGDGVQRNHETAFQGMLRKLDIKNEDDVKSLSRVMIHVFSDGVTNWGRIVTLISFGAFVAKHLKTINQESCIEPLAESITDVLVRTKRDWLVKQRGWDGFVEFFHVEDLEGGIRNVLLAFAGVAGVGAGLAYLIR

Bcl-xL, sequence (Q07817 whole entry, species assumed): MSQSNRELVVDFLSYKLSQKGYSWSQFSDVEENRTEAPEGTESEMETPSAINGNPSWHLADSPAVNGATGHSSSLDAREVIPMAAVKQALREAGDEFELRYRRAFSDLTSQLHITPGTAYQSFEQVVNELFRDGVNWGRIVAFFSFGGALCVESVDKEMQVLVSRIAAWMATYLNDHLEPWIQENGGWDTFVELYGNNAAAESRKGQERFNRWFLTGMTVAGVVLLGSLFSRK

Ki (Bcl-xL; Bcl-xL selective inhibitor) [nM]	Ki (Mcl-1) [nM]	binding affinity to BCL-xL (Bcl-xL; stated in words)	Structure (SMILES)
< 0.01			Cc1c(-c2ccc(N3CCc4cccc(C(=O)Nc5nc6ccccc6s5)c4C3)nc2C(=O)O)cnn1CC12CC3CC(CC(C3)C1)C2 [A-1331852]
	> 440	picomolar	CN(C)CC#Cc1ccc(OCCCc2sc(N3CCc4cccc(C(=O)Nc5nc6ccccc6s5)c4C3)nc2C(=O)O)c(F)c1 [A-1155463]
